Like-named read-outs stand apart in the source and are kept apart here.
Experiments:
[1] = system: Akt phosphorylated at Ser473 in PC-3 cells; assay: Cellular assay: phosphorylation of Akt at Ser473 in PC-3 cells (MSD ELISA); assay type: cell-based; settings: PC-3 cells, 60 min compound incubation, MSD ELISA, read-out: IC50 pAkt_S473
Outline: (§1)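 PC-3 cells were exposed to compound or 0.3% DMSO for 60 min at 37° C, 5% CO2, then lysed in ice-cold buffer. Phospho-Akt was captured on site-specific antibody-coated plates and detected with Sulfo-tag anti-total Akt by electrochemiluminescence. IC50 values came from five-concentration response curves.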

PI3Kβ = target: T1, PI3Kβ (Homo sapiens, UniProt P42338); assay: Enzyme binding assay (KINOMEscan, DiscoveRx); settings: PIK3Cβ_h, read-out: Kd PIK3Cβ_h
T1 construct: purchased DiscoveRx Corporation, San Diego (contract service, KINOMEscan)
T1 sequence (P42338 whole entry): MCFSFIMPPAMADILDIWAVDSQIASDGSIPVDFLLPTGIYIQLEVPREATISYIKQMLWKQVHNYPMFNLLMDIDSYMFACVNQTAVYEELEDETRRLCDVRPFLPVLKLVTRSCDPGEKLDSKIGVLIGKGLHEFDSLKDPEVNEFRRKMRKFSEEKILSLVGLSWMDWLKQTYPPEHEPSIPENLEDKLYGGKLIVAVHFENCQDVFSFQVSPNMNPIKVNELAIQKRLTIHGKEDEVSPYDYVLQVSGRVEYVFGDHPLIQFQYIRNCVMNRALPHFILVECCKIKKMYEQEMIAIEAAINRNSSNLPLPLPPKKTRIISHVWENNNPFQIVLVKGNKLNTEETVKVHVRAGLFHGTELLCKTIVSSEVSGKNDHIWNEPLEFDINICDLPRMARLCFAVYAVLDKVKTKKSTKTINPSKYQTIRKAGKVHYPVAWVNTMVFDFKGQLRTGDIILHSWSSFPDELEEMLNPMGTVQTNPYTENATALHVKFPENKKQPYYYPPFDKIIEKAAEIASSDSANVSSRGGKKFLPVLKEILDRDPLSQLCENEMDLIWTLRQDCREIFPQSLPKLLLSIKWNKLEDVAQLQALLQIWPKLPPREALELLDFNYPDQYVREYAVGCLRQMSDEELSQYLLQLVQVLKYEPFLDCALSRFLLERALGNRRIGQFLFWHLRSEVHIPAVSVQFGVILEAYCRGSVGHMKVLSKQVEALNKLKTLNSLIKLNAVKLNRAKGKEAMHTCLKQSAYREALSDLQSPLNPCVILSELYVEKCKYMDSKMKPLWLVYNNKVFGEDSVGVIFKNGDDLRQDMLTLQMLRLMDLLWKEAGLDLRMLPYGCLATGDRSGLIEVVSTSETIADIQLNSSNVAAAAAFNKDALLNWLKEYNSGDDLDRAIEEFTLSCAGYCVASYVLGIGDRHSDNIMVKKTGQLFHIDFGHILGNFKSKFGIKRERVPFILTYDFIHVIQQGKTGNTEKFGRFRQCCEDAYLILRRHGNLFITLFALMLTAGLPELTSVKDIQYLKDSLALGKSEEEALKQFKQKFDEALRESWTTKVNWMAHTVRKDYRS
Outline: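 Values are Kd in nM, the binding constant of each inhibitor for the kinase, obtained from a KINOMEscan enzyme binding assay.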

PI3Kδ = target: T2, PI3Kδ (Homo sapiens, UniProt O00329); assay: Enzyme binding assay (KINOMEscan, DiscoveRx); settings: PIK3Cδ_h
T2 construct: purchased DiscoveRx Corporation, San Diego (contract service, KINOMEscan)
T2 sequence (O00329 1-1044): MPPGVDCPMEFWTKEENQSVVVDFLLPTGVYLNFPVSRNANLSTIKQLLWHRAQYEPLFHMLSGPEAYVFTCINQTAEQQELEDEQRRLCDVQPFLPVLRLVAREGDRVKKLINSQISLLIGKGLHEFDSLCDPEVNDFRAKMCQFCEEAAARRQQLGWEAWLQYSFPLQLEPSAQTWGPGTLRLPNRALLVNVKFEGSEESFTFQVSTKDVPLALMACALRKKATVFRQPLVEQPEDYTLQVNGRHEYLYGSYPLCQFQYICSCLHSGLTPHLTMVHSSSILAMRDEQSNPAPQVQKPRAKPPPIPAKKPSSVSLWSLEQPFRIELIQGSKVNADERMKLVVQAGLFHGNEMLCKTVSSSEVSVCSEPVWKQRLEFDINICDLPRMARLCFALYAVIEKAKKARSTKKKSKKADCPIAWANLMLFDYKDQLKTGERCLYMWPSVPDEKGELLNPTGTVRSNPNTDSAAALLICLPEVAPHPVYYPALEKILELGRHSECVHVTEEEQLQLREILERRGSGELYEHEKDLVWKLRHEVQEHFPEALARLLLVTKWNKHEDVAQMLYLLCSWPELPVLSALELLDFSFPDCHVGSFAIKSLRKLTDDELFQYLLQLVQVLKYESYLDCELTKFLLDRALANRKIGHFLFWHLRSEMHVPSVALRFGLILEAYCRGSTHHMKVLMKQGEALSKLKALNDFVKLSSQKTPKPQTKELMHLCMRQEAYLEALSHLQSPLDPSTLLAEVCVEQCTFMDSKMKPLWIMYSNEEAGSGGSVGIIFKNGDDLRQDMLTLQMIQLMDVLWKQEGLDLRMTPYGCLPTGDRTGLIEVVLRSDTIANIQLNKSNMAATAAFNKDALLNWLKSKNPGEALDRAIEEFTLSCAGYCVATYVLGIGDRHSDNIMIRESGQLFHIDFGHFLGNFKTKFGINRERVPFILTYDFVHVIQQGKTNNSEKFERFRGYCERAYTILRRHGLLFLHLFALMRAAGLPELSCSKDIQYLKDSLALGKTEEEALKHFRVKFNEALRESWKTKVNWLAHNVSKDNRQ
Outline: (§2)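 Affinity for each kinase was determined by KINOMEscan profiling.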

[2] = system: Akt phosphorylated at Thr308 in PC-3 cells; assay: Cellular assay: phosphorylation of Akt at Thr308 in PC-3 cells (MSD ELISA); assay type: cell-based; settings: PC-3 cells, 60 min compound incubation, MSD ELISA, read-out: IC50 pAkt_Thr308
Outline: as §1

kinase enzymes [3] = target: T3, kinase enzymes (Homo sapiens, UniProt P42345); assay: Enzyme binding assay (KINOMEscan, DiscoveRx), further kinases of Table A; settings: MTOR_h
T3 construct: purchased DiscoveRx Corporation, San Diego (contract service, KINOMEscan)
Outline: as §2

kinase enzymes [4] = target: T4, kinase enzymes (Homo sapiens, UniProt P48736); assay: as above; settings: PIK3Cγ_h
T4 construct: purchased DiscoveRx Corporation, San Diego (contract service, KINOMEscan)
T4 sequence (P48736 whole entry): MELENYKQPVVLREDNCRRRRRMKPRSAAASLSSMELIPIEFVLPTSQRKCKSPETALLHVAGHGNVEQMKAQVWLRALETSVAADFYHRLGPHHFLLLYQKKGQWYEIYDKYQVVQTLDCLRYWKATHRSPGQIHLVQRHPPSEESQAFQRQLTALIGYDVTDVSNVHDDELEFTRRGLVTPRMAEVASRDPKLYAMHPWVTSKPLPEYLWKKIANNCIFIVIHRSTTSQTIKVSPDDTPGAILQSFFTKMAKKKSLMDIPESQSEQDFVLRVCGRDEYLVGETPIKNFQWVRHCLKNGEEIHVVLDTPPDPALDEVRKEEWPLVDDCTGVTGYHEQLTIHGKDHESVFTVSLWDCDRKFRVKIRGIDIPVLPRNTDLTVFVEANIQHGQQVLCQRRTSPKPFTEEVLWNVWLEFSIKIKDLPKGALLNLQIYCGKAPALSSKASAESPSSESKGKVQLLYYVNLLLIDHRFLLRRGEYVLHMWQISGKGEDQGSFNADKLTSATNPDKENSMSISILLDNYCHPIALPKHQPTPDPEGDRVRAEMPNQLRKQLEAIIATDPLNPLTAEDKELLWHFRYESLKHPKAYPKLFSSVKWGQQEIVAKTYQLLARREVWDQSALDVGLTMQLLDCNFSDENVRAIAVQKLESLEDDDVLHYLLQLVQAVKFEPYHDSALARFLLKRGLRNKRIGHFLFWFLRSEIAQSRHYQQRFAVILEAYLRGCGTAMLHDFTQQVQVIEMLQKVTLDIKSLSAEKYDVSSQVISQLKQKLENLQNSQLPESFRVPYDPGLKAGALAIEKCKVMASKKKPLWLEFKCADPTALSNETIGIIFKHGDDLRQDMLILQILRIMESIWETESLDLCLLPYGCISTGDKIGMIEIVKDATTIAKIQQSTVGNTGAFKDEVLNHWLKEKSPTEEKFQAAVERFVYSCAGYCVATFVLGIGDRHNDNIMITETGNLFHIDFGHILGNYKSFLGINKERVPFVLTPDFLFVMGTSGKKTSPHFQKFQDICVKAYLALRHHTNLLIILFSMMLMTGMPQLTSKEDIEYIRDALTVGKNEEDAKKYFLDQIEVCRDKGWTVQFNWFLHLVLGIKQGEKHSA
Outline: as §2

kinase enzymes [5] = target: T5, kinase enzymes (Homo sapiens, UniProt P42336); assay: as above; settings: PIK3Cα_h
T5 construct: purchased DiscoveRx Corporation, San Diego (contract service, KINOMEscan)
T5 sequence (P42336 whole entry): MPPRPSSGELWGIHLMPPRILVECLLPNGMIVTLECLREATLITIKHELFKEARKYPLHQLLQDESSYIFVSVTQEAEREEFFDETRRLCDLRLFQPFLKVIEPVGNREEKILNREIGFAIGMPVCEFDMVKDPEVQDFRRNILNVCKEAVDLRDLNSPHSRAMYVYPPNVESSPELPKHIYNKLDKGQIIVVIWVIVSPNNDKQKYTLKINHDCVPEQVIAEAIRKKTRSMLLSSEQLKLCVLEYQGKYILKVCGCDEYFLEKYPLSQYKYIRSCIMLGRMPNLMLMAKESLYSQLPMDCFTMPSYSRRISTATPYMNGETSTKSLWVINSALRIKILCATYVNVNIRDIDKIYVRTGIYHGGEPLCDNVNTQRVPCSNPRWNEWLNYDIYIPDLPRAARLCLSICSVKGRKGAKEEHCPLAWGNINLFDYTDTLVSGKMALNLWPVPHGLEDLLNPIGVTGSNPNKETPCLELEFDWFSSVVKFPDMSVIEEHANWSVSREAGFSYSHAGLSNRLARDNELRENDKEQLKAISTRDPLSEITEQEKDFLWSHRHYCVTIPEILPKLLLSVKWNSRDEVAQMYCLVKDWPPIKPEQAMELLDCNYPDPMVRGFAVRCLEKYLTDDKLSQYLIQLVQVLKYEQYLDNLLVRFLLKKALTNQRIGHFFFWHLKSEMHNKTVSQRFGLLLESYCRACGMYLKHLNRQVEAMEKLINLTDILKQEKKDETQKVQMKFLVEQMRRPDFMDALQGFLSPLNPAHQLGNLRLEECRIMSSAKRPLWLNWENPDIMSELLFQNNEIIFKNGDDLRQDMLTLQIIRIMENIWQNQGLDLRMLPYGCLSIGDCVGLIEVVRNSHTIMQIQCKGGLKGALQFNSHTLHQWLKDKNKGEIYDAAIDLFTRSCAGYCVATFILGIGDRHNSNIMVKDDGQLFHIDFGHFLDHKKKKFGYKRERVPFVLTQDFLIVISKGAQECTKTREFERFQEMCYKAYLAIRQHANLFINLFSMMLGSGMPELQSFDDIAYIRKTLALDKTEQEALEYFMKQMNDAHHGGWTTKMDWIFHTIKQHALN
Outline: as §2

Row | SMILES | IC50 ([1]; Homo sapiens, PC-3, 1 h) [nM] | Kd (PI3Kβ) [nM] | Kd (PI3Kδ) [nM] | melting point [°C] | IC50 ([2]; Homo sapiens, PC-3, 1 h) [nM] | Kd (kinase enzymes [3]) [nM] | Kd (kinase enzymes [4]) [nM] | Kd (kinase enzymes [5]) [nM] | IC50 [1] [nM] | IC50 [2] [nM]
1 | CC(Nc1ccc(F)c(F)c1)c1cc(C(=O)NCCCO)cc2ncc(N3CCOCC3)nc12 (single isomer, unassigned) [Compound 280a] | – | 12 | 562 | 80 | – | 20900 | 12000 | 1700 | 87 | 45
2 | CNCCN(C)C(=O)c1cc(C(C)Nc2cc(F)c(C(F)(F)F)c(F)c2)c2nc(N3CCOCC3)cnc2c1 (stereo not shown) [Compound 224] | 468 | 186 | 4470 | 163 | > 513 | > 30200 | > 30200 | 27500 | – | –

Compounds with a lower Kd (PI3Kβ), results first:

Row | IC50 ([1]; Homo sapiens, PC-3, 1 h) [nM] | Kd (PI3Kβ) [nM] | Kd (PI3Kδ) [nM] | melting point [°C] | IC50 ([2]; Homo sapiens, PC-3, 1 h) [nM] | Kd (kinase enzymes [3]) [nM] | Kd (kinase enzymes [4]) [nM] | Kd (kinase enzymes [5]) [nM] | IC50 [1] [nM] | IC50 [2] [nM] | SMILES
3 | 52 | 0.5 | 115 | 80 | 37 | 11500 | 2190 | 832 | – | – | CNCCNC(=O)c1cc(C(C)Nc2cc(F)ccc2F)c2nc(N3CCOCC3)cnc2c1 (stereo not shown) [Compound 132]
4 | 22 | 0.2 | 31 | 80 | 23 | > 30200 | 398 | 245 | – | – | OCCCNCc1cc(C2CCCN2c2cc(F)cc(F)c2)c2nc(N3CCOCC3)cnc2c1 (single isomer, unassigned) [Compound 102]
5 | 7 | 1 | 35 | 80 | 4 | 17400 | 309 | 56 | – | – | CNC(=O)c1cc(C2CCCN2c2cc(F)cc(F)c2)c2nc(N3CCOCC3)cnc2c1 (single isomer, unassigned) [Compound 40]

From patent US10526316B2, “Quinoxaline and pyridopyrazine derivatives as PI3Kβ inhibitors” (Janssen Pharmaceutica NV, priority 2015, dated 2020)
